{"source": "paper PMC7717579", "about": "“Phosphoregulation of HORMA domain protein HIM-3 promotes asymmetric synaptonemal complex disassembly in meiotic prophase in Caenorhabditis elegans” (PLoS Genetics, 2020)", "molecular_target": "T1, HTP-2 protein (full length) (Caenorhabditis elegans, UniProt Q95XC8)", "T1 sequence (Q95XC8 1-352)": "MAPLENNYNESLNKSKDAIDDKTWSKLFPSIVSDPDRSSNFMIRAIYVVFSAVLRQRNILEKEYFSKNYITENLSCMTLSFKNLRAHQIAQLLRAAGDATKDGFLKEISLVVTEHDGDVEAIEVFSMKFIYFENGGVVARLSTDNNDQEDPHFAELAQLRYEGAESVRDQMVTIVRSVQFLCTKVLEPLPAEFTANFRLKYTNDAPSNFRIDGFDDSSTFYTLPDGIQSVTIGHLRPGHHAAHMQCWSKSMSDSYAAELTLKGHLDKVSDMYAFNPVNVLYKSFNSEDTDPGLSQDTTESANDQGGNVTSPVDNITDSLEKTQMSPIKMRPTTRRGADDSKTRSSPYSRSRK", "experiment": "Fluorescence polarization (FP) peptide binding assay", "details": "for Kd (HTP-2 binding): FP, 50 nM FITC-tagged HIM-3 closure motif peptide, various concentrations of bacterially purified full-length HTP-2, 20 mM Tris pH 7.5, 300 mM NaCl, 10% glycerol, 1 mM DTT, 0.1% NP-40, 1 hour at room temperature, single-site binding model, triplicated measurements", "excerpt": "To understand regulation of meiotic proteins by post-translational modification, we previously carried out mass spectrometry to identify phosphorylated proteins in C. elegans adult hermaphrodites. […] We detected phosphopeptides containing Ser282 either singly or in combination with Ser274, Ser277, or Tyr279, and the most commonly-observed peptide contained doubly-phosphorylated Ser277/Ser282 (Fig 1A and S1 Table). Among the three most C-terminal phosphoresidues, which reside within the conserved closure motif, Tyr279 and Ser or Thr at position 282 are conserved features among nematode HIM-3 orthologs (Fig 1A). […] More recent studies further identified this C-terminus region containing Ser375 to be the closure motif, able to be bound by the HORMA domain of HORMAD1 itself and HORMAD2 [27, 34]. While phosphorylation at the closure motif is conserved between C. elegans HIM-3 and mouse HORMAD1 (S1 Fig), the function is not understood. Since other HORMA family proteins, HTP-1 and -2, are known to bind the HIM-3 closure motif in C. elegans, we first examined if phosphorylation affects HTP-1/2 binding to HIM-3 in vitro. A previous study has shown that both HTP-1 and -2 proteins bind unmodified HIM-3 peptides containing the closure motif in a fluorescence polarization (FP) peptide binding assay. Examination of the crystal structure resolved by the same study led us to predict that phosphorylation at Ser282 would likely interfere with HTP-1/2 binding (Fig 1B). We conducted a similar FP peptide binding assay using purified HTP-2 and fluorescently tagged HIM-3 closure motif peptides containing various modifications (Fig 1C).\nFig 1 Phosphorylation at the HIM-3 closure motif prevents HTP-1/2 binding in vitro. A, top: Schematic diagram of HIM-3, showing the HORMA domain (magenta) and phosphorylation sites identified by mass spectrometry in red. The conserved closure motif is underlined. bottom: Conservation of the Tyr and Ser/Thr, highlighted in orange, in the closure motif in eight Caenorhabditis species. B, left: Diagram of hierarchical binding of HTP-1, 2, 3 and HIM-3 from. center, diagram of possible multivalent binding modes of the axial element, based on. right, Interactions between the HIM-3 closure motif (magenta) and the HTP-2 (grey) HORMA domain shown in PDB structure 4TZL [27]. C, Fluorescence polarization peptide binding assay using bacterially purified HTP-2 protein (full length) and fluorescently tagged HIM-3 peptides with indicated phosphorylation or Ala substitution. Wild type means HIM-3 peptides with no phosphorylation. Phosphorylation at Ser282 inhibits HTP-2 binding in vitro. Error bars are calculated as the SD from triplicated measurements. […]\nFluorescein (FITC) conjugated peptides for the FP assay were synthesized by either Scrum Inc. or Eurofins Inc. as shown in S2 Table. […] For the fluorescence assay, synthesized peptides were first resuspended in DMSO, then diluted into binding buffer (20 mM Tris pH 7.5, 300 mM NaCl, 10% glycerol, 1 mM DTT, 0.1% NP-40). Reactions of 50 μl total volume containing 50 nM peptide and various concentrations of HTP-2 proteins were incubated for 1 hour at room temperature, then fluorescence polarization was measured in 384-well plates using a TECAN Infinite M1000 PRO fluorescence plate reader. Binding data were analyzed with Graphpad Prism version 6.0h for Macintosh (GraphPad Software, La Jolla California USA) using a single-site binding model.", "note": "Non-standard residues stand in square brackets, D forms with d. Residues, ends and D or L forms follow the SMILES beside them. *: point of attachment. FITC = O=C1OC2(c3ccc(O)cc3Oc3cc(O)ccc32)c2ccc(NC(=S)*)cc21; pY = N[C@@H](Cc1ccc(OP(=O)(O)O)cc1)C(=O)O; pS = N[C@@H](COP(=O)(O)O)C(=O)O; Ahx = NCCCCCC(=O)O"}
{"molecule": "CC[C@H](C)[C@H](NC(=O)CNC(=O)[C@H](CCC(N)=O)NC(=O)[C@H](CO)NC(=O)[C@H](CC(C)C)NC(=O)CNC(=O)[C@H](Cc1ccc(OP(=O)(O)O)cc1)NC(=O)[C@@H]1CCCN1C(=O)[C@H](CO)NC(=O)[C@H](CC(=O)O)NC(=O)[C@H](CCCNC(=N)N)NC(=O)[C@H](CO)NC(=O)[C@@H](NC(=O)[C@H](CCCNC(=N)N)NC(=O)CCCCCNC(=S)Nc1ccc2c(c1)C(=O)OC21c2ccc(O)cc2Oc2cc(O)ccc21)[C@@H](C)CC)C(=O)N[C@H](C(=O)N[C@@H](CCCCN)C(=O)O)[C@@H](C)O", "note": "[Y279phos] ({FITC-Ahx}-RISRDSP[pY]GLSQGITK-OH)", "values": [{"measurement": "Kd", "value": 16.1, "unit": "µM"}]}
{"molecule": "{FITC}-[Ahx]RISRDSPYGL[pS]QGITK-OH [S282phos, FITC-tagged HIM-3 closure motif peptide phosphorylated at Ser282]", "values": [{"measurement": "Kd (HTP-2 binding)", "value": "not significant binding"}]}
{"molecule": "{FITC}-[Ahx]RISRDSP[pY]GL[pS]QGITK-OH [Y279phos_S282phos, FITC-tagged HIM-3 closure motif peptide phosphorylated at Tyr279 and Ser282]", "values": [{"measurement": "Kd (HTP-2 binding)", "value": "not significant binding"}]}
{"molecule": "CC[C@H](C)[C@H](NC(=O)CNC(=O)[C@H](CCC(N)=O)NC(=O)[C@H](C)NC(=O)[C@H](CC(C)C)NC(=O)CNC(=O)[C@H](Cc1ccc(O)cc1)NC(=O)[C@@H]1CCCN1C(=O)[C@H](CO)NC(=O)[C@H](CC(=O)O)NC(=O)[C@H](CCCNC(=N)N)NC(=O)[C@H](CO)NC(=O)[C@@H](NC(=O)[C@H](CCCNC(=N)N)NC(=O)CCCCCNC(=S)Nc1ccc2c(c1)C(=O)OC21c2ccc(O)cc2Oc2cc(O)ccc21)[C@@H](C)CC)C(=O)N[C@H](C(=O)N[C@@H](CCCCN)C(=O)O)[C@@H](C)O", "note": "[S282A] ({FITC-Ahx}-RISRDSPYGLAQGITK-OH)", "values": [{"measurement": "Kd", "value": 11.3, "unit": "µM"}]}
{"molecule": "CC[C@H](C)[C@H](NC(=O)CNC(=O)[C@H](CCC(N)=O)NC(=O)[C@H](CO)NC(=O)[C@H](CC(C)C)NC(=O)CNC(=O)[C@H](Cc1ccc(O)cc1)NC(=O)[C@@H]1CCCN1C(=O)[C@H](CO)NC(=O)[C@H](CC(=O)O)NC(=O)[C@H](CCCNC(=N)N)NC(=O)[C@H](CO)NC(=O)[C@@H](NC(=O)[C@H](CCCNC(=N)N)NC(=O)CCCCCNC(=S)Nc1ccc2c(c1)C(=O)OC21c2ccc(O)cc2Oc2cc(O)ccc21)[C@@H](C)CC)C(=O)N[C@H](C(=O)N[C@@H](CCCCN)C(=O)O)[C@@H](C)O", "note": "[unphosphorylated peptides] ({FITC-Ahx}-RISRDSPYGLSQGITK-OH)", "values": [{"measurement": "Kd", "value": 5.8, "unit": "µM"}]}
